Assay results: US8912184B1, “Therapeutic and diagnostic methods” (Alzheimer's Institute of America, Inc., priority 2010, dated 2014)
Like-named read-outs stand apart in the source and are kept apart here.

Tested on: HCT116 cells
Experiment: Nicotinic Acid Rescue Cytotoxicity Assay, first method: cytotoxicity to HCT116 cells in presence and absence of 10 μM nicotinic acid
Type: cell-based
Conditions: Homo sapiens, HCT-116, 72 h
Experimental: Additionally, Nicotinic Acid (NA) rescue of cytotoxicity of Nampt inhibitors was assessed by two distinct methods. In the first method, Nampt1 inhibitor cytotoxicity was evaluated in the presence and absence of exogenous nicotinic acid (NA) at a fixed concentration. […] Twenty four hours after cells were plated, the media was removed and replaced with media containing 10 μM nicotinic acid. Compounds were then immediately added. Cell viability was then assessed at 72 h.
Using the first of the two assays described above, the 90 compounds shown in Table 5, below, were tested for cytotoxicity towards Naprt1-proficient HCT116 cells, and for the ability of NA to block the observed cytotoxicity (or “rescue” the cells from the cytotoxic activity of the tested compound). The compounds listed are referred to by a unique rescue analysis example number (i.e., R1, R2 . . . R90) that is used as a reference number in Table 4, in which the results of the cytotoxicity and rescue assays are presented.

[1] = absence of nicotinic acid, read-out: HCT116 72 h cytotoxicity
[2] = presence of 10 μM nicotinic acid, read-out: HCT116 72 h cytotoxicity with 10 μM Nicotinic Acid

Compound	IC50 [1]	IC50 [2]
C#CCN(Cc1ccc2nc(C)n(C)c(=O)c2c1)c1ccc(C(=O)NCc2cccnc2)cc1 [Example R47, 4-{[(2,3-Dimethyl-4-oxo-3,4-dihydroquinazolin-6-yl)methyl](prop-2-yn-1-yl)amino}-N-(pyridin-3-ylmethyl)benzamide]	33.5 nM	> 10000 nM
O=C(NCc1cccnc1)Nc1ccc(NS(=O)(=O)c2ccccc2Br)cc1F [Example R56, 2-bromo-N-(3-fluoro-4-{[(pyridin-3-ylmethyl)carbamoyl]amino}phenyl)benzene-sulfonamide]	50 nM	> 1000 nM
O=C(NCc1cccnc1)c1ccc(OCc2ccccc2-c2cnc3ccccc3c2)cc1 [Example R48, N-(Pyridin-3-ylmethyl)-4-{[2-(quinolin-3-yl)benzyl]oxy}benzamide]	38.8 nM	> 10000 nM
O=C(NCc1cccnc1)c1ccc(NCc2ccccc2-c2cccc(Cl)c2)cc1 [Example R30, 4-{[(3′-Chlorobiphenyl-2-yl)methyl]amino}-N-(pyridin-3-ylmethyl)benzamide]	1350 nM	29000 nM
O=C(NCc1cccnc1)Nc1ccc(NS(=O)(=O)c2ccccc2Br)cc1 [Example R33, 2-Bromo-N-(4-{[(pyridin-3-ylmethyl)carbamoyl]amino}phenyl)benzene-sulfonamide]	4.6 nM	> 50000 nM
CCn1cc(-c2ccccc2OCc2ccc(NC(=O)NCc3cccnc3)cc2)cn1 [Example R84, 1-(4-{[2-(1-Ethyl-1H-pyrazol-4-yl)phenoxy]methyl}phenyl)-3-(pyridin-3-ylmethyl)urea]	10.8 nM	> 5000 nM
O=C(NCc1cccnc1)Nc1ccc(NS(=O)(=O)c2ccc3ccccc3c2)cc1 [Example R46, N-(4-{[(Pyridin-3-ylmethyl)carbamoyl]amino}phenyl) naphthalene-2-sulfonamide]	64.8 nM	> 10000 nM
O=C(NCc1cccnc1)Nc1ccc(NS(=O)(=O)c2ccccc2-c2ccccc2)nc1 [Example R90, N-(5-{[(Pyridin-3-ylmethyl)carbamoyl]amino}pyridin-2-yl)biphenyl-2-sulfonamide]	28.7 nM	> 5000 nM
C/C=C/CN(Cc1ccccc1Cl)c1ccc(C(=O)NCc2cccnc2)cc1 [Example R43, 4-[(2E)-But-2-en-1-yl(2-chlorobenzyl)amino]-N-(pyridin-3-ylmethyl)benzamide]	98.6 nM	> 10000 nM
O=C(NCc1cccnc1)Nc1ccc(NS(=O)(=O)c2c(F)cc(F)cc2Br)cc1 [Example R61, 2-bromo-4,6-difluoro-N-(4-{[(pyridin-3-ylmethyl)carbamoyl]amino}phenyl)benzene-sulfonamide]	1.8 nM	> 1000 nM
CC(C)=CCN(Cc1ccccc1Cl)c1ccc(C(=O)NCc2cccnc2)cc1 [Example R44, 4-[(2-Chlorobenzyl)(3-methylbut-2-en-1-yl)amino]-N-(pyridin-3-ylmethyl)benzamide]	16.3 nM	> 10000 nM
CC(C)CCN(Cc1ccccc1Cl)c1ccc(C(=O)NCc2cccnc2)cc1 [Example R42, 4-[(2-Chlorobenzyl)(3-methylbutyl)amino]-N-(pyridin-3-ylmethyl)benzamide]	387 nM	> 10000 nM
O=C(NCc1cccnc1)Nc1ccc(CNc2ccccc2-c2ccccc2)cc1 [Example R86, 1-{4-[(Biphenyl-2-ylamino)methyl]phenyl}-3-(pyridin-3-ylmethyl)urea]	0.4 nM	4000 nM
Cc1ccccc1-c1ccccc1CNc1ccc(C(=O)NCc2cccnc2)cc1 [Example R28, 4-{[(2′-Methylbiphenyl-2-yl)methyl]amino}-N-(pyridin-3-ylmethyl)benzamide]	335 nM	25000 nM
O=C(NCc1cccnc1)c1ccc(NC(=O)c2ccccc2)cc1 [Example R6, 4-[(Phenylcarbonyl)amino]-N-(pyridin-3-ylmethyl)benzamide]	1690 nM	> 10000 nM
O=C(NCc1cccnc1)c1ccc(NC(=S)Nc2ccccc2Br)cc1 [Example R13, 4-{[(2-Bromophenyl)carbamothioyl]amino}-N-(pyridin-3-ylmethyl)benzamide]	1610 nM	> 50000 nM
CC(=O)Nc1cccc(-c2ccccc2CNc2ccc(C(=O)NCc3cccnc3)cc2)c1 [Example R26, 4-({[3′-(Acetylamino)biphenyl-2-yl]methyl}amino)-N-(pyridin-3-ylmethyl)benzamide]	26.9 nM	25000 nM
O=C(NCc1cccnc1)Nc1ccc(NS(=O)(=O)c2sccc2Br)cc1 [Example R71, 3-bromo-N-(4-{[(pyridin-3-ylmethyl)carbamoyl]amino}phenyl) thiophene-2-sulfonamide]	13.2 nM	> 5000 nM

Compound	IC50 [1]	IC50 [2]
C#CCN(Cc1cc2c(=O)n(C)c(CN3CCN(CCN)CC3)nc2cc1Cl)c1ccc(C(=O)NCc2cccnc2)cc1 [Example R2, 4-{[(2-{[4-(2-Aminoethyl)piperazin-1-yl]methyl}-7-chloro-3-methyl-4-oxo-3,4-dihydroquinazolin-6-yl)methyl](prop-2-yn-1-yl)amino}-N-(pyridin-3-ylmethyl)benzamide]	18.3 nM	> 50000 nM
O=C(NCc1cccnc1)Nc1ccc(S(=O)(=O)Nc2ccccc2Cl)cc1 [Example R54, N-(2-chlorophenyl)-4-{[(pyridin-3-ylmethyl)carbamoyl]amino} benzenesulfonamide]	71.5 nM	> 10000 nM
O=C(NCCCCCOc1ccccc1-c1ccccc1)NCc1cccnc1 [Example R85, 1-[5-(Biphenyl-2-yloxy)pentyl]-3-(pyridin-3-ylmethyl)urea]	1.3 nM	> 5000 nM
Cc1ccccc1NCC(=O)Nc1ccc(C(=O)NCc2cccnc2)cc1 [Example R20, 4-{[N-(2-Methylphenyl)glycyl]amino}-N-(pyridin-3-ylmethyl)benzamide]	106 nM	> 50000 nM
O=C(NCc1cccnc1)Nc1ccc(NS(=O)(=O)c2ccc(F)cc2-c2ccccc2)cc1 [Example R68, 5-fluoro-N-(4-{[(pyridin-3-ylmethyl)carbamoyl]amino}phenyl)biphenyl-2-sulfonamide]	2.1 nM	> 5000 nM
N#C/N=C(\NCCCCCCOc1ccc(Cl)cc1)Nc1ccnc(Cl)c1 [Example R37, 1-[6-(4-Chlorophenoxy)hexyl]-2-(2-chloropyridin-4-yl)-3-cyanoguanidine]	168 nM	5000 nM
O=C(NCc1cccnc1)Nc1ccc(NS(=O)(=O)c2ccccc2-c2ccsc2)cc1 [Example R63, N-(4-{[(pyridin-3-ylmethyl)carbamoyl]amino}phenyl)-2-(thiophen-3-yl)benzenesulfonamide]	1.6 nM	> 10000 nM
O=C(NCc1cccnc1)Nc1ccc(COc2ccccc2-c2ccccc2)cc1 [Example R64, 1-{4-[(Biphenyl-2-yloxy)methyl]phenyl}-3-(pyridin-3-ylmethyl)urea]	0.2 nM	> 10000 nM
O=C(CNc1ccccc1Oc1ccccc1)Nc1ccc(C(=O)NCc2cccnc2)cc1 [Example R19, 4-{[N-(2-Phenoxyphenyl)glycyl]amino}-N-(pyridin-3-ylmethyl)benzamide]	586 nM	> 50000 nM
CN(C)c1cccc2c(S(=O)(=O)Nc3ccc(NC(=O)NCc4cccnc4)cc3)cccc12 [Example R45, 5-(Dimethylamino)-N-(4-{[(pyridin-3-ylmethyl)carbamoyl]amino}phenyl) naphthalene-1-sulfonamide]	4.8 nM	> 10000 nM
CC(C)c1cccc(-c2ccccc2CNc2ccc(C(=O)NCc3cccnc3)cc2)c1 [Example R25, 4-({[3′-(Propan-2-yl)biphenyl-2-yl]methyl}amino)-N-(pyridin-3-ylmethyl)benzamide]	8330 nM	37000 nM
O=C(Nc1ccc(C(=O)NCc2cccnc2)cc1)Nc1ccc(Cl)c(Cl)c1 [Example R12, 4-{[(3,4-Dichlorophenyl)carbamoyl]amino}-N-(pyridin-3-ylmethyl)benzamide]	9640 nM	24800 nM
O=C(NCc1ccc(NS(=O)(=O)c2cc(C(F)(F)F)ccc2Br)cc1)Nc1ccncc1 [Example R73, 2-bromo-N-(4-{[(pyridin-4-ylcarbamoyl)amino]methyl}phenyl)-5-(trifluoromethyl)benzenesulfonamide]	1 nM	> 5000 nM
S=C(NCCCCCCOc1ccc(Cl)cc1)Nc1cccnc1 [Example R39, 1-[6-(4-Chlorophenoxy)hexyl]-3-pyridin-3-ylthiourea]	1620 nM	> 10000 nM
O=C(NCc1cccnc1)Nc1ccc(NS(=O)(=O)c2ccc([N+](=O)[O-])c(C(F)(F)F)c2)cc1 [Example R50, 4-Nitro-N-(4-{[(pyridin-3-ylmethyl)carbamoyl]amino}phenyl)-3-(trifluoromethyl)benzenesulfonamide]	6.7 nM	> 10000 nM
O=C(NCc1cccnc1)Nc1ccc(COc2ccccc2-c2ccncc2)cc1 [Example R81, 1-(Pyridin-3-ylmethyl)-3-(4-{[2-(pyridin-4-yl)phenoxy]methyl}phenyl)urea]	5.4 nM	> 5000 nM
CC(C)=CCN(Cc1cc2c(=O)n(C)cnc2cc1Cl)c1ccc(C(=O)NCc2cccnc2)cc1 [Example R52, 4-{[(7-Chloro-3-methyl-4-oxo-3,4-dihydroquinazolin-6-yl)methyl](3-methylbut-2-en-1-yl)amino}-N-(pyridin-3-ylmethyl)benzamide]	7.3 nM	> 10000 nM
